Series [1] deals with T1, P2X purinoceptor 7 (Homo sapiens, UniProt Q99572).
T1 sequence (Q99572 whole entry): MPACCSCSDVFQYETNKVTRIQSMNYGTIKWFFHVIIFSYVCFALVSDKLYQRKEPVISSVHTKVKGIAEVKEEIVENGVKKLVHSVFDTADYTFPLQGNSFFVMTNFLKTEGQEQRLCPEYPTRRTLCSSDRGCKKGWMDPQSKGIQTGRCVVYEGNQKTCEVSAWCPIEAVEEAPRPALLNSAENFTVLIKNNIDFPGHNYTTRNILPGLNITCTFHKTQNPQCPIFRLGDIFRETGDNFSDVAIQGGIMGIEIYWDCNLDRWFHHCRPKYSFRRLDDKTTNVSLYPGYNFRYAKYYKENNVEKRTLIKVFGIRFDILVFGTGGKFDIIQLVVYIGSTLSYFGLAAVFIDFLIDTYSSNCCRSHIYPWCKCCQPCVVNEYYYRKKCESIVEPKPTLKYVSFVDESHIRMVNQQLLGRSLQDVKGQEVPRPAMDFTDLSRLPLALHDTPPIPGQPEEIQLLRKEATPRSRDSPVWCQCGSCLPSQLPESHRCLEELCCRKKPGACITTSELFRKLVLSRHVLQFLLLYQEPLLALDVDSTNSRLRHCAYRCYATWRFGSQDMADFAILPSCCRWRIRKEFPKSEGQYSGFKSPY
Kind of series: (§1) Antagonist activity at P2X7 receptor in LPS/IFNc-differentiated human THP-1 cells assessed as inhibition of ATP-induced IL-1beta release preincubated for 30 mins followed by LPS stimulation for 4 hrs using cells treated with ATP for 30 mins by ELISA. Type of series: cell-based. In general terms: In an ELISA, binding on a coated surface is turned into a signal by an enzyme label.

Series [2] addresses T2, P2X purinoceptor 7 (Homo sapiens) (UniProt Q99572).
T2 sequence (whole entry): T1 sequence (Q99572 whole entry)
The series is described as §1. Format: cell-based.

In series [3] the test system is Mus musculus. As to the kind of experiment: Anti-inflammatory activity in Swiss mouse assessed as inhibition of LPS-induced pleural accumulation in neutrophils at 1 to 100 ng/kg, ip pretreated for 1 hr followed by LPS stimulation and measured after 24 hrs by May-Grunwald-Giemsa staining-based Neubauer chamber based optical microscopy. Format: functional, organism-based.

Series [4] relates to Mus musculus. As to the kind of experiment: Anti-inflammatory activity in po dosed Swiss Webster mouse assessed as inhibition of ATP-induced paw edema pretreated for 60 mins followed by ATP administration and measured after 30 mins. Type of series: functional.
Series [5] deals with Mus musculus. As to the kind of experiment: Anti-inflammatory activity in Swiss mouse assessed as inhibition of LPS-induced protein extravasation in thoracic cavity at 100 ng/kg, ip pretreated for 1 hr followed by LPS stimulation and measured after 24 hrs. Format: functional, organism-based.
In series [6] the target is T3, P2X purinoceptor 7 (Mus musculus, UniProt Q9Z1M0).
T3 sequence (Q9Z1M0 whole entry): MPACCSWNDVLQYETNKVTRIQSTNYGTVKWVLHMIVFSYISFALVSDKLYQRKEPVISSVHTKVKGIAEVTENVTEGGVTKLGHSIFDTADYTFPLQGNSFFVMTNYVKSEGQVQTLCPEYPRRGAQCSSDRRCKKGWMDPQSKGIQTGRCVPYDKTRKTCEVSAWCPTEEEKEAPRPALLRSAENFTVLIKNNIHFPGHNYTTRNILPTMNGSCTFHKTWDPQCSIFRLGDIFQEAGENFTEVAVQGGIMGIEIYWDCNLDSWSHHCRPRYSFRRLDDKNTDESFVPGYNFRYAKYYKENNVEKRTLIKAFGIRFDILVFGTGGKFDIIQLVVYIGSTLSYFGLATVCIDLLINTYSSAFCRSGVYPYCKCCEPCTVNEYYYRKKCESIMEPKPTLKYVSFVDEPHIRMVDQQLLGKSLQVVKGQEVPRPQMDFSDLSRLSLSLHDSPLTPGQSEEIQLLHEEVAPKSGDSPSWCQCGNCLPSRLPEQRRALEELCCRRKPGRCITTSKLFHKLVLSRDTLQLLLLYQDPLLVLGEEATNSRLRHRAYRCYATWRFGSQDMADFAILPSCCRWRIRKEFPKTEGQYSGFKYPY
As to the kind of experiment: Antagonist activity at P2X7 receptor in Swiss mouse peritoneal macrophages assessed as inhibition of BzATP-induced current at holding potential of -60 mV preincubated for 5 mins followed by BzATP addition measured after 5 mins by Whole cell patch-clamp analysis.

Series [7] concerns the target P2X purinoceptor 7 (Mus musculus) (UniProt Q9Z1M0). Kind of series: Antagonist activity at P2X7 receptor in Swiss mouse peritoneal macrophages assessed as inhibition of ATP-induced propidium iodide uptake at 10 uM after 30 mins by FLIPR assay relative to 1 mM ATP.
In series [8] the target is T3, P2X purinoceptor 7. Kind of series: Antagonist activity at P2X7 receptor in LPS/IFNc-differentiated Swiss mouse peritoneal macrophages assessed as inhibition of ATP-induced IL-1beta release preincubated for 30 mins followed by LPS stimulation for 4 hrs using cells treated with ATP for 30 mins by ELISA.
The target in series [9] is T4, P2X purinoceptor 7 (Mus musculus) (UniProt Q9Z1M0).
T4 sequence (whole entry): T3 sequence (Q9Z1M0 whole entry)
Kind of series: (§2) Antagonist activity at P2X7 receptor in Swiss mouse peritoneal macrophages assessed as inhibition of ATP-induced propidium iodide uptake after 25 mins by flow cytometric analysis. (A flow cytometer gives signals particle by particle.)

The target in series [10] is T3, P2X purinoceptor 7. The series is described as §2.
Series [11] can be described thus: Kinetic solubility in pH 2 hydrochloride buffer at 1 to 250 uM after 2 hrs. Type of series: physicochemical. Conditions: read-out: Kinetic_solubility.
For series [12], the system named is Mus musculus. Kind of series: Anti-inflammatory activity in ip dosed Swiss Webster mouse assessed as inhibition of ATP-induced paw edema pretreated for 60 mins followed by ATP administration and measured after 30 mins. Format: functional.
Series [13] concerns the target T2, P2X purinoceptor 7 (Homo sapiens). As to the kind of experiment: Antagonist activity at human P2X7 receptor expressed in HEK293 cells assessed as inhibition of ATP-induced ethidium iodide uptake at 10 uM preincubated for 10 mins followed by ATP addition measured after 20 mins by FLIPR assay relative to 1 mM ATP. Format: cell-based.
Series [14] deals with Mus musculus. Kind of series: Anti-inflammatory activity in Swiss mouse assessed as inhibition of LPS-induced pleural accumulation in eosiniphils at 100 mg/kg, ip pretreated for 1 hr followed by LPS stimulation and measured after 24 hrs by May-Grunwald-Giemsa staining-based Neubauer chamber based optical microscopy. Format: functional, organism-based.
Series [15] deals with Mus musculus. Kind of series: Anti-inflammatory activity in Swiss mouse assessed as inhibition of LPS-induced pleural accumulation in total leucocytes at 100 mg/kg, ip pretreated for 1 hr followed by LPS stimulation and measured after 24 hrs by May-Grunwald-Giemsa staining-based Neubauer chamber based optical microscopy. Format: functional, organism-based.
In series [16] the test system is Mus musculus. As to the kind of experiment: Anti-inflammatory activity in Swiss mouse assessed as inhibition of LPS-induced protein extravasation in thoracic cavity at 100 mg/kg, ip pretreated for 1 hr followed by LPS stimulation and measured after 24 hrs. Format: functional, organism-based.
The subject of series [17] is Mus musculus. Kind of series: Anti-inflammatory activity in Swiss mouse assessed as inhibition of LPS-induced nitric oxide production in pleural washes at 100 mg/kg, ip pretreated for 1 hr followed by LPS stimulation and measured after 24 hrs by Lowry/Griess analysis. Type of series: functional, organism-based. In general terms: Griess reagent forms a coloured azo dye with nitrite.

Structures are written as SMILES. Calls of active or inactive are those of the source. The rule behind the calls is not given here.

In general, IC50 refers to the concentration needed to halve the response being measured. As usually defined, the inhibition is the relative decrease from the control value, in per cent.

On to `CCOCc1cn(-c2ccc(Cl)cc2)nn1`, for which the IC50 came out at 0.0675 µM on P2X purinoceptor 7 [1], 0.0411 µM at P2X purinoceptor 7 [6], 0.091 µM at P2X purinoceptor 7 [8] and 0.083 µM on P2X purinoceptor 7 [10]. Besides, in [2], the Activity entry was “Dose-dependent effect”. Also, in the series on Mus musculus [3], the outcome was inactive. Also, the ID50 was found to be 0.06859 µg/kg in the series on Mus musculus [4] and 0.07984 µg/kg in the series on Mus musculus [12]. The outcome in the series with Mus musculus [5] was Active. The inhibition in series [7] was 84.7%; in series [9], “Dose-dependent effect”; in series [13], 96.9%. In series [11], the solubility kinetic at 2 h is below 250 µM.

Take `O=C(O)Cc1ccccc1Nc1c(Cl)cccc1Cl` [DICLOFENAC]: the outcome in the series on Mus musculus [14], with Mus musculus [16] and in the series on Mus musculus [17] was inactive. Also, the outcome in the series with Mus musculus [15] was Active.

Values taken from ChEMBL document CHEMBL4130413, “1-Aryl-1H- and 2-aryl-2H-1,2,3-triazole derivatives blockade P2X7 receptor in vitro and inflammatory response in vivo” (Eur J Med Chem, 2017).
